Results: ChEMBL document CHEMBL2417377, “Hit-to-lead optimization and kinase selectivity of imidazo[1,2-a]quinoxalin-4-amine derived JNK1 inhibitors” (Bioorg Med Chem Lett, 2013)

What was measured:
Conditions in all cases: PC-3
[1] = biological target: Serine/threonine-protein kinase MARK2 (Homo sapiens) (UniProt Q7KZI7); test: Inhibition of MARK2 in human PC3 cell lysates at 10 uM using desthiobiotin-tagged ATP probe AX9989 followed by trypsinization by LC/MS analysis
[2] = biological target: Protein kinase C alpha type (Homo sapiens) (UniProt P17252); test: Inhibition of PKCalpha in human PC3 cell lysates at 10 uM using desthiobiotin-tagged ATP probe AX9989 followed by trypsinization by LC/MS analysis
[3] = biological target: Phosphatidylinositol 4-kinase beta (Homo sapiens) (UniProt Q9UBF8); test: Inhibition of PI4KB in human PC3 cell lysates at 10 uM using desthiobiotin-tagged ATP probe AX9989 followed by trypsinization by LC/MS analysis
[4] = biological target: Cyclin-dependent kinase 2 (Homo sapiens) (UniProt P24941); test: Inhibition of CDK2 in human PC3 cell lysates at 10 uM using desthiobiotin-tagged ATP probe AX9989 followed by trypsinization by LC/MS analysis
[5] = biological target: T1, Ephrin type-B receptor 2 (Homo sapiens) (UniProt P29323); test: Inhibition of EphB2 in human PC3 cell lysates at 10 uM using desthiobiotin-tagged ATP probe AX9989 followed by trypsinization by LC/MS analysis
T1 sequence (whole entry): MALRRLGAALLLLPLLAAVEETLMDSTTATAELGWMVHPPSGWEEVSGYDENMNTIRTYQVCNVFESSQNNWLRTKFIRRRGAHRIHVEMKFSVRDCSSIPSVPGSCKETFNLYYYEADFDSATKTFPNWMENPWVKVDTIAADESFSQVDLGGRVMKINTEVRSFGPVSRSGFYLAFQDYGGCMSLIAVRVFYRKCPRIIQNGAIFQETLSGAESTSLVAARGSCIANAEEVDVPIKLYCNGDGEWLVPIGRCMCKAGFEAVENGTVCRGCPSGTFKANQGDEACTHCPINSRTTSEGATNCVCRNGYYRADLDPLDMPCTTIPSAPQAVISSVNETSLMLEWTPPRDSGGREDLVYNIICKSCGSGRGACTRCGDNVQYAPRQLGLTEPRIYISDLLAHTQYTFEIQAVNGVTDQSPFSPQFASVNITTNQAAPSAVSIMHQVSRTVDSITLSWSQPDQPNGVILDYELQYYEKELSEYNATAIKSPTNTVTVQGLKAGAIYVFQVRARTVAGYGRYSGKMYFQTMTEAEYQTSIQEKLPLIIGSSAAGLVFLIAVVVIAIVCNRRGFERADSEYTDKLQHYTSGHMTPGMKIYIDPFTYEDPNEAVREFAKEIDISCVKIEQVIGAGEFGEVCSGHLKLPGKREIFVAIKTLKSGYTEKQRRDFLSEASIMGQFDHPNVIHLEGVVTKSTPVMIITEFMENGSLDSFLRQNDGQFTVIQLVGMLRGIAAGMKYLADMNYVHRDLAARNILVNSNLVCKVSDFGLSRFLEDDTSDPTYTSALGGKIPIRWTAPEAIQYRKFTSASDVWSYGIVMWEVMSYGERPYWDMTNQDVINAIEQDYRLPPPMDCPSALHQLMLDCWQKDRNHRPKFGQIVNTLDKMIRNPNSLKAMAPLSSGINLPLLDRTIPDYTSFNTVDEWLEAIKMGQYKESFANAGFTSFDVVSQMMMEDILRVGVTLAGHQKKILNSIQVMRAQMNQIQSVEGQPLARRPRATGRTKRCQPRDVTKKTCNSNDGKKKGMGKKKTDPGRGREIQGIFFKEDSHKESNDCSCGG

[6] = biological target: DNA-dependent protein kinase catalytic subunit (Homo sapiens) (UniProt P78527); test: Inhibition of DNAPK in human PC3 cell lysates at 10 uM using desthiobiotin-tagged ATP probe AX9989 followed by trypsinization by LC/MS analysis
[7] = biological target: T2, Serine/threonine-protein kinase Nek9 (Homo sapiens) (UniProt Q8TD19); test: Inhibition of NEK9 in human PC3 cell lysates at 10 uM using desthiobiotin-tagged ATP probe AX9989 followed by trypsinization by LC/MS analysis
T2 sequence (whole entry): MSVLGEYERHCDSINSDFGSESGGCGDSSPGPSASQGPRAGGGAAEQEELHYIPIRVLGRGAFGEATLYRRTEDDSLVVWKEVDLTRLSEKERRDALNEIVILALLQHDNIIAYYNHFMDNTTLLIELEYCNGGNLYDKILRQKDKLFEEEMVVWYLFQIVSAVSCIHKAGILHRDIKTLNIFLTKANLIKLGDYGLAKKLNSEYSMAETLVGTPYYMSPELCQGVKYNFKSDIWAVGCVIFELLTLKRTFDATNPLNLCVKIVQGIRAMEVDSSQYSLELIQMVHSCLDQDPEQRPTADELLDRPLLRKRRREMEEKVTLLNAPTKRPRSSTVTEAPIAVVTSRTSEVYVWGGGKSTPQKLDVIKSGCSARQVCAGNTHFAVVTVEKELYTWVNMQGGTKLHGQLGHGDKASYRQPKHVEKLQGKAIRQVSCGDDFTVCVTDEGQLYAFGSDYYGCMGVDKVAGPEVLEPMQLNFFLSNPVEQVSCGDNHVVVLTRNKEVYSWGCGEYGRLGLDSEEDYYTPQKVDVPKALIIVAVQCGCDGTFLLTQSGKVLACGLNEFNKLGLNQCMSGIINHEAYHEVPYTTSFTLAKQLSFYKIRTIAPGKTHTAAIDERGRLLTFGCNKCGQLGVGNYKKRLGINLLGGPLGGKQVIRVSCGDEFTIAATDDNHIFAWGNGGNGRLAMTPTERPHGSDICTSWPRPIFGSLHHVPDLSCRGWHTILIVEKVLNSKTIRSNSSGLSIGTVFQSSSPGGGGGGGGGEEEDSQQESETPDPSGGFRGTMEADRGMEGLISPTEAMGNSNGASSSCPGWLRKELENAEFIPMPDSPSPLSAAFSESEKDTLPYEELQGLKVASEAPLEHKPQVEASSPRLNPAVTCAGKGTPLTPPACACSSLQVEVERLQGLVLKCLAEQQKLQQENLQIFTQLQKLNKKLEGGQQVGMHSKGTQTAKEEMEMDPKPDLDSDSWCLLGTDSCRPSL

[8] = biological target: Microtubule-associated serine/threonine-protein kinase 3 (Homo sapiens, UniProt O60307); test: Inhibition of MAST3 in human PC3 cell lysates at 10 uM using desthiobiotin-tagged ATP probe AX9989 followed by trypsinization by LC/MS analysis
[9] = biological target: Mitogen-activated protein kinase 1 (Homo sapiens) (UniProt P28482); test: Inhibition of Erk2 in human PC3 cell lysates at 10 uM using desthiobiotin-tagged ATP probe AX9989 followed by trypsinization by LC/MS analysis
[10] = biological target: Cyclin-dependent kinase 11B (Homo sapiens) (UniProt P21127); test: Inhibition of CDK11 in human PC3 cell lysates at 10 uM using desthiobiotin-tagged ATP probe AX9989 followed by trypsinization by LC/MS analysis
[11] = biological target: Serine/threonine-protein kinase Chk2 (Homo sapiens) (UniProt O96017); test: Inhibition of CHK2 in human PC3 cell lysates at 10 uM using desthiobiotin-tagged ATP probe AX9989 followed by trypsinization by LC/MS analysis
Chain of Serine/threonine-protein kinase Chk2 (Homo sapiens) (O96017 whole entry): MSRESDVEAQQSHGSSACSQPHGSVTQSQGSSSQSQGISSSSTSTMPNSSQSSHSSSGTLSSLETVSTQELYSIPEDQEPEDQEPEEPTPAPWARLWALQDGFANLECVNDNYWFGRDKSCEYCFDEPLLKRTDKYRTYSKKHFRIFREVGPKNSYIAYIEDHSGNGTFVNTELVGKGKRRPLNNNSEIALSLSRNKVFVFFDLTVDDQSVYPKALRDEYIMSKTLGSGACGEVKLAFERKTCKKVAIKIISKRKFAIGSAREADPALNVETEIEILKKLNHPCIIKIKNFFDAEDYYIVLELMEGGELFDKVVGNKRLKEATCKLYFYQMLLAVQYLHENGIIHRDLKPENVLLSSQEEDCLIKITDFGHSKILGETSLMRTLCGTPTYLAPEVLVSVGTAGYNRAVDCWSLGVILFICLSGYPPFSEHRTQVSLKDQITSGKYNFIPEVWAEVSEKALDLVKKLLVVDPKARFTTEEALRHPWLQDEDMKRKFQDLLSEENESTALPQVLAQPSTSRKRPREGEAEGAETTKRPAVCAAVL

Chain of Serine/threonine-protein kinase MARK2 (Homo sapiens) (Q7KZI7 whole entry): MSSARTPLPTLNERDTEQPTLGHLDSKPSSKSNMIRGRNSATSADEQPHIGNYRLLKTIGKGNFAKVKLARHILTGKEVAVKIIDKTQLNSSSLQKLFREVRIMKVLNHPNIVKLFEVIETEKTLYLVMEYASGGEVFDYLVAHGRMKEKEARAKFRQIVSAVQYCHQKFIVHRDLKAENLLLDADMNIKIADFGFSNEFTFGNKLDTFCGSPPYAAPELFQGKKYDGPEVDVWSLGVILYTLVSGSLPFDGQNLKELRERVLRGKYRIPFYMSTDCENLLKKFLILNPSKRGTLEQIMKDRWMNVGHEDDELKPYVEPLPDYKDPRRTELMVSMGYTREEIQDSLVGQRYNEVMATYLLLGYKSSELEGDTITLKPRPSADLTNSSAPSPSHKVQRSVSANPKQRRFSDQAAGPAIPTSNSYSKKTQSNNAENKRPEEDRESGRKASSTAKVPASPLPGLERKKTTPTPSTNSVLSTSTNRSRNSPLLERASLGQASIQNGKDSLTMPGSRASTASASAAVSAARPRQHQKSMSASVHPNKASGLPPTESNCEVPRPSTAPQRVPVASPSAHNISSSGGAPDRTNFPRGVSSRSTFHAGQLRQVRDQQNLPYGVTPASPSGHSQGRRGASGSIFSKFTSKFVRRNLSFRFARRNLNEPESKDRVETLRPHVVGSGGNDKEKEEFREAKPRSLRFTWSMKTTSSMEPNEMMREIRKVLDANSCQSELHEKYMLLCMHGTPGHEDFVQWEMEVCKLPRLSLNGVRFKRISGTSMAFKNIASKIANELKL
Chain of Mitogen-activated protein kinase 1 (Homo sapiens) (P28482 whole entry): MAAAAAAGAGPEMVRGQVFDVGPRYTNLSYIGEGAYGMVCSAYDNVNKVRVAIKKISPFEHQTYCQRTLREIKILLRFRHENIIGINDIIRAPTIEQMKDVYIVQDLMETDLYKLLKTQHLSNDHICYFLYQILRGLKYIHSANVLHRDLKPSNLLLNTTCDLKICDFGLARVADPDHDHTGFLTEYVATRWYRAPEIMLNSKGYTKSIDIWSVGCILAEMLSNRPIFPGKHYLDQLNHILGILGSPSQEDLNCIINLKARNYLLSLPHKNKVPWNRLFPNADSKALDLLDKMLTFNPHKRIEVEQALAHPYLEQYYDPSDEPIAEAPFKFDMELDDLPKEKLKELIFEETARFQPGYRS
Chain of Phosphatidylinositol 4-kinase beta (Homo sapiens) (Q9UBF8 2-816 limits assumed): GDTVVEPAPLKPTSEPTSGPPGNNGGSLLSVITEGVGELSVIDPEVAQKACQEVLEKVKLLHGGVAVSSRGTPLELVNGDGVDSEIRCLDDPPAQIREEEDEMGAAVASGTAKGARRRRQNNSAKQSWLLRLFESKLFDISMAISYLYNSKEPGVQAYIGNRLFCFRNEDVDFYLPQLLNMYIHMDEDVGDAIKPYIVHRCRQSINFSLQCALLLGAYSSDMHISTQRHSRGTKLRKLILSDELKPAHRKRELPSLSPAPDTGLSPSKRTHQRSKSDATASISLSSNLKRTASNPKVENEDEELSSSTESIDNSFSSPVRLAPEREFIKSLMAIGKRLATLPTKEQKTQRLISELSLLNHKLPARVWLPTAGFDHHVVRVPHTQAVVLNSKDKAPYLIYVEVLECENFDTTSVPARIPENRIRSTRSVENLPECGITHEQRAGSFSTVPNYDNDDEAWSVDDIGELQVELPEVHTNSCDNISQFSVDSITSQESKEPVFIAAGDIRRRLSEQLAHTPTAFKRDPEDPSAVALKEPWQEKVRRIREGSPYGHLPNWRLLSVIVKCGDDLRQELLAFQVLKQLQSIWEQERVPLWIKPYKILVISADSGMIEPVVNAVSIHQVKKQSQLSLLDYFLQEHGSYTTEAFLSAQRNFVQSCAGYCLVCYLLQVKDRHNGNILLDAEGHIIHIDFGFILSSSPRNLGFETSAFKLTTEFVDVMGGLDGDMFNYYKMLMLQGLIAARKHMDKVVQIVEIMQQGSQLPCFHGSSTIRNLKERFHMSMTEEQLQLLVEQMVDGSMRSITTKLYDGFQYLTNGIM
Chain of Microtubule-associated serine/threonine-protein kinase 3 (O60307 whole entry): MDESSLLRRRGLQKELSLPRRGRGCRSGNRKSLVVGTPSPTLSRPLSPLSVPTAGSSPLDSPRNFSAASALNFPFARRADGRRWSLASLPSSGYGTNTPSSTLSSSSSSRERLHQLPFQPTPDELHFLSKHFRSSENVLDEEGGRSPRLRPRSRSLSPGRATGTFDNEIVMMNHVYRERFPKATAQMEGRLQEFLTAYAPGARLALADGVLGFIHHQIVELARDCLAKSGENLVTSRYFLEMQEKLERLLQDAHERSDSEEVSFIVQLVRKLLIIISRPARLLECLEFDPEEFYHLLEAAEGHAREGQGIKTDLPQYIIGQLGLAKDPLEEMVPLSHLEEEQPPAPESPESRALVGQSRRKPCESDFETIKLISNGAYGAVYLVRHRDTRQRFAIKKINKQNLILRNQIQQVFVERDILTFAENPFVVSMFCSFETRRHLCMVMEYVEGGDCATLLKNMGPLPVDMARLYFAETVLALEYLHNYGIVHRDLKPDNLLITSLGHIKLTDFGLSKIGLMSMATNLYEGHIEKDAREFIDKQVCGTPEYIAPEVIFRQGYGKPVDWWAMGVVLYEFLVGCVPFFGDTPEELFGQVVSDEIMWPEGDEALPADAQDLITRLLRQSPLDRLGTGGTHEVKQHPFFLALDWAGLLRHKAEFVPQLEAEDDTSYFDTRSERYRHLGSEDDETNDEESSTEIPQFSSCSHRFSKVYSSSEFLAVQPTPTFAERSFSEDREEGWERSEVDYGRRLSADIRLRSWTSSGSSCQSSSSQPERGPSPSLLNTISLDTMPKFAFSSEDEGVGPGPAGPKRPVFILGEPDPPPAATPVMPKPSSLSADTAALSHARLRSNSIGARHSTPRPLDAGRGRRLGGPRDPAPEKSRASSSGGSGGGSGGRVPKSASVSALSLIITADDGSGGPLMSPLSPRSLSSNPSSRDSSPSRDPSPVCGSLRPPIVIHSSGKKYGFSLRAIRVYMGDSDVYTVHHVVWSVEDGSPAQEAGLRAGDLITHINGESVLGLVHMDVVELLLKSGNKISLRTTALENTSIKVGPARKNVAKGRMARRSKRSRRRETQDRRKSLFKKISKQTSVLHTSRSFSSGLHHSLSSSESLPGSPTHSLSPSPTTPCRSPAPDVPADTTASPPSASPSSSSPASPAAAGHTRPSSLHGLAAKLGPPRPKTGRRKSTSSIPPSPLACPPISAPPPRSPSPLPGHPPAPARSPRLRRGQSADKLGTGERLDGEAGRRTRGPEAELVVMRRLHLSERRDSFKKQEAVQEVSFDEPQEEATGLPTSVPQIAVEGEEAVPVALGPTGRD

inhibition [1] [%]	inhibition [2] [%]	inhibition [3] [%]	inhibition [4] [%]	inhibition [5] [%]	inhibition [6] [%]	inhibition [8] [%]	inhibition [9] [%]	inhibition [10] [%]	inhibition [11] [%]	Structure (SMILES)	inhibition [7] [%]
< 35	< 35	51	< 35	< 35	< 35	97.9	< 35	< 35	45.6	O=C(N[C@H](CO)c1ccccc1)c1ccc2nc(N[C@H]3CC[C@H](O)CC3)c3nccn3c2c1	< 35
< 35	< 35	< 35	< 35	< 35	< 35	99.3	< 35	< 35	< 35	CC(C)(NC(=O)c1ccc2nc(N[C@H]3CC[C@H](O)CC3)c3nccn3c2c1)c1ccccc1	< 35
< 35	< 35	94.2	< 35	< 35	< 35	< 35	< 35	< 35	< 35	NC(=O)c1ccc2nc(N[C@H]3CC[C@H](O)CC3)c3nccn3c2c1	< 35
< 35	< 35	< 35	< 35	< 35	< 35	90.2	< 35	< 35	< 35	CCC[C@@H](NC(=O)c1ccc2nc(N[C@H]3CC[C@H](O)CC3)c3nccn3c2c1)c1ccccc1	< 35
< 35	< 35	40.4	< 35	< 35	< 35	97	< 35	< 35	36.9	C[C@@H](NC(=O)c1ccc2nc(N[C@H]3CC[C@H](O)CC3)c3nccn3c2c1)c1ccccc1	< 35
< 35	< 35	< 35	< 35	< 35	< 35	98.9	< 35	< 35	< 35	O=C(NC1(c2ccccc2)CC1)c1ccc2nc(N[C@H]3CC[C@H](O)CC3)c3nccn3c2c1	< 35
< 35	< 35	< 35	< 35	< 35	< 35	96.2	< 35	< 35	< 35	CC[C@@H](NC(=O)c1ccc2nc(N[C@H]3CC[C@H](O)CC3)c3nccn3c2c1)c1ccccc1	< 35
< 35	< 35	< 35	< 35	< 35	< 35	< 35	< 35	< 35	< 35	O=C(NC1(Cc2ccc(F)cc2)CC1)c1ccc2nc(N[C@H]3CC[C@H](O)CC3)c3nccn3c2c1	< 35
< 35	< 35	< 35	< 35	< 35	< 35	76.3	< 35	< 35	< 35	C[C@H](NC(=O)c1ccc2nc(N[C@H]3CC[C@H](O)CC3)c3nccn3c2c1)c1ccccc1	< 35
< 35	< 35	< 35	< 35	< 35	< 35	99.2	< 35	< 35	< 35	O=C(NC1(c2ccccc2)CCC1)c1ccc2nc(N[C@H]3CC[C@H](O)CC3)c3nccn3c2c1	< 35
< 35	< 35	< 35	< 35	< 35	< 35	97.6	< 35	< 35	< 35	O=C(NC1(c2ccc(F)cc2)CC1)c1ccc2nc(N[C@H]3CC[C@H](O)CC3)c3nccn3c2c1	< 35
< 35	< 35	99.2	59.1	< 35	< 35	< 35	< 35	< 35	35	O=C(O)c1ccc2nc(N[C@H]3CC[C@H](O)CC3)c3nccn3c2c1	< 35
